Results reported in ChEMBL document CHEMBL5236550, “Small molecule selenium-containing compounds: Recent development and therapeutic applications” (Eur J Med Chem, 2021).
pIC50, pKi: −log10 of the molar value. ≈ marks a conversion by molar mass, not a printed value.

Experiments:
DU-145 = assay: Anticancer activity against human DU-145 cells assessed as cell growth inhibition incubated for 24 to 96 hrs by MTT assay; assay type: functional, cell-based
PC-3 = assay: Anticancer activity against human PC-3 cells assessed as cell growth inhibition incubated for 24 to 96 hrs by MTT assay; assay type: functional, cell-based
U-266 = assay: Anticancer activity against human U-266 cells assessed as cell growth inhibition incubated for 24 hrs by MTS assay; assay type: functional, cell-based; details: U-266, 24 h
MIA PaCa-2 = assay: Anticancer activity against human MIA PaCa-2 cells xenografted in female Foxn1nu mouse assessed as reduction in tumor growth po,administered once daily for 28 days; assay type: functional; details: time 28 day
Staphylococcus aureus [1] = assay: Antibacterial activity against Staphylococcus aureus HEMSA assessed as bacterial growth inhibition incubated for 20 to 24 hrs by microdilution assay; assay type: functional; details: time 20-24 hrs
Staphylococcus aureus [2] = assay: Antibacterial activity against Staphylococcus aureus ATCC 2592 assessed as bacterial growth inhibition incubated for 20 to 24 hrs by microdilution assay; assay type: functional; details: time 20-24 hrs
Enterococcus faecalis [3] = assay: Antibacterial activity against Enterococcus faecalis ATCC 29212 assessed as bacterial growth inhibition incubated for 20 to 24 hrs by microdilution assay; assay type: functional; details: time 20-24 hrs
Pseudomonas aeruginosa [4] = assay: Antibacterial activity against Pseudomonas aeruginosa PA 54 assessed as bacterial growth inhibition incubated for 20 hrs by […]; assay type: functional, organism-based
Escherichia coli [5] = assay: Antibacterial activity against Escherichia coli NCTC 13351 assessed as bacterial growth inhibition incubated for 20 hrs by […]; assay type: functional
Pseudomonas aeruginosa [6] = assay: Antibacterial activity against Pseudomonas aeruginosa ATCC 27853 assessed as bacterial growth inhibition incubated for 20 hrs by […]; assay type: functional, organism-based; details: ATCC 27853, 20 h
Acinetobacter [7] = assay: Antibacterial activity against Acinetobacter AC 1995594 assessed as bacterial growth inhibition incubated for 20 hrs by […]; assay type: functional, organism-based; details: AC 1995594, 20 h
Acinetobacter [8] = assay: Antibacterial activity against Acinetobacter AC 2151300 assessed as bacterial growth inhibition incubated for 20 hrs by […]; assay type: functional, organism-based; details: AC 2151300, 20 h
Escherichia coli [9] = assay: Antibacterial activity against Escherichia coli EC 1995591 assessed as bacterial growth inhibition incubated for 20 hrs by […]; assay type: functional
Klebsiella pneumoniae [10] = assay: Antibacterial activity against Klebsiella pneumoniae NRZ-00103 assessed as bacterial growth inhibition incubated for 20 hrs by […]; assay type: functional, organism-based; details: NRZ-00103, 20 h
Klebsiella pneumoniae [11] = assay: Antibacterial activity against Klebsiella pneumoniae KP 21513017 assessed as bacterial growth inhibition incubated for 20 hrs by […]; assay type: functional, organism-based; details: KP 21513017, 20 h
Staphylococcus aureus [12] = assay: Antibacterial activity against Methicillin resistant Staphylococcus aureus assessed as bacterial growth inhibition incubated for 20 hrs by […]; assay type: functional
Klebsiella pneumoniae [13] = assay: Antibacterial activity against Klebsiella pneumoniae KP 1963584 assessed as bacterial growth inhibition incubated for 20 hrs by […]; assay type: functional, organism-based; details: KP 1963584, 20 h
Escherichia coli [14] = assay: Antibacterial activity against Escherichia coli EC 2151612 assessed as bacterial growth inhibition incubated for 20 hrs by […]; assay type: functional
Pseudomonas aeruginosa [15] = assay: Antibacterial activity against Pseudomonas aeruginosa PA T18 assessed as bacterial growth inhibition incubated for 20 hrs by […]; assay type: functional, organism-based; details: PA T18, 20 h
Acinetobacter [16] = assay: Antibacterial activity against Acinetobacter AB 4184/2/5 assessed as bacterial growth inhibition incubated for 20 hrs by […]; assay type: functional, organism-based; details: AB 4184/2/5, 20 h
Escherichia coli [17] = assay: Antibacterial activity against Escherichia coli EC 1227107 assessed as bacterial growth inhibition incubated for 20 hrs by […]; assay type: functional
Pseudomonas aeruginosa [18] = assay: Antibacterial activity against Pseudomonas aeruginosa PA 58 assessed as bacterial growth inhibition incubated for 20 hrs by […]; assay type: functional
Carbonic anhydrase 9 = Carbonic anhydrase 9 (Homo sapiens, UniProt Q16790); assay: Inhibition of human carbonic anhydrase 9 assessed as inhibition constant
Carbonic anhydrase 12 = Carbonic anhydrase 12 (Homo sapiens, UniProt O43570); assay: Inhibition of human carbonic anhydrase 12 assessed as inhibition constant
Sequence of Carbonic anhydrase 12 (O43570 whole entry): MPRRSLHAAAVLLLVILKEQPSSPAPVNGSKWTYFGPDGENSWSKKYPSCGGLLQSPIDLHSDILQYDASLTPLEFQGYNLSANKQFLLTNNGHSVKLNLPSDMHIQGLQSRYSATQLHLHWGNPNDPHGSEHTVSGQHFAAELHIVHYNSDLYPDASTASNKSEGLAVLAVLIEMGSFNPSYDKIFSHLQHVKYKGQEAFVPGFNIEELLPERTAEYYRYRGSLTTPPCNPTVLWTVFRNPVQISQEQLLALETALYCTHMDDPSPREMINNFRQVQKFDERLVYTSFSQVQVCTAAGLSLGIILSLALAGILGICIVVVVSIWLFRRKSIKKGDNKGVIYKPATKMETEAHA

Carbonic anhydrase 1 = Carbonic anhydrase 1 (Homo sapiens, UniProt P00915); assay: Inhibition of human carbonic anhydrase 1 assessed as inhibition constant
Sequence of Carbonic anhydrase 1 (P00915 whole entry): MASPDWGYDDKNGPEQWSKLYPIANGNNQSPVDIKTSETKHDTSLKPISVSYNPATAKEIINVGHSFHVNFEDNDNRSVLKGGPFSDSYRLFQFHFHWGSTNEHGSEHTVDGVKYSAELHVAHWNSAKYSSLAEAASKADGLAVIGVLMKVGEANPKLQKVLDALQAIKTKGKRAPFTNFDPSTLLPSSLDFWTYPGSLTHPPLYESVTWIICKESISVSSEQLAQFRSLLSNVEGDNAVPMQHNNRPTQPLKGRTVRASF

Carbonic anhydrase 2 = Carbonic anhydrase 2 (Homo sapiens, UniProt P00918); assay: Inhibition of human carbonic anhydrase 2 assessed as inhibition constant
Carbonic anhydrase 7 = Carbonic anhydrase 7 (Homo sapiens, UniProt P43166); assay: Inhibition of human carbonic anhydrase 7 assessed as inhibition constant by a stopped flow CO2 hydrase assay
Sequence of Carbonic anhydrase 7 (P43166 whole entry): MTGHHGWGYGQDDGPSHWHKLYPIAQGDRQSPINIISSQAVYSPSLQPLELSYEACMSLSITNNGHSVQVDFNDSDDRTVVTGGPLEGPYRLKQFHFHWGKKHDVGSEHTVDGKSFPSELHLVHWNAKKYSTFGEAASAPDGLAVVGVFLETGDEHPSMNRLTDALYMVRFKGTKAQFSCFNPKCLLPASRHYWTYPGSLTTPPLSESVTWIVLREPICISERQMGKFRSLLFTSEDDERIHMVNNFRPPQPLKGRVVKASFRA

Trypanosoma cruzi [19] = assay: Antibacterial activity against Trypanosoma cruzi Dm28c assessed as inhibition of bacterial growth incubated for 72 hrs by microplate reader analysis; assay type: functional, organism-based
Trypanosoma cruzi [20] = assay: Antibacterial activity against Trypanosoma cruzi Y assessed as bacterial growth inhibition incubated for 24 hrs; assay type: functional, organism-based
[21] = Inhibition of Vibrio cholerae alpha carbonic anhydrase assessed as inhibition constant by phenol red-based hydrase assay
Enterococcus faecalis [22] = assay: Antibacterial activity against Enterococcus faecalis assessed as bacterial growth inhibition incubated for 24 hrs by microtitre analysis; assay type: functional
[23] = tested on: Staphylococcus saprophyticus; assay: Antibacterial activity against Staphylococcus saprophyticus assessed as bacterial growth inhibition incubated for 24 hrs by microtitre analysis; assay type: functional
Bacillus cereus [24] = assay: Antibacterial activity against Bacillus cereus assessed as bacterial growth inhibition incubated for 24 hrs by microtitre analysis; assay type: functional
Bacillus cereus [25] = assay: […] activity against Bacillus cereus assessed as bacterial growth inhibition incubated for 24 hrs by microtitre analysis; assay type: functional
Trypanosoma cruzi [26] = assay: Antibacterial activity against Trypanosoma cruzi Y assessed as fold change in bacterial growth incubated for 24 hrs; assay type: functional
Leishmania major = assay: Antibacterial activity against Leishmania major assessed as bacterial growth inhibition incubated for 72 hrs by MTT assay; assay type: functional, organism-based
Leishmania amazonensis = assay: […] inhibition incubated for 72 hrs by Giemsa stain based microscopic analysis; assay type: functional, organism-based
EBC-1 = assay: Anticancer activity against human EBC-1 cells assessed as cell growth inhibition incubated for 72 hrs by resazurin based spectrophotometer analysis; assay type: functional; details: EBC-1, 72 h
[27] = Inhibition of Vibrio cholerae carbonic anhydrase alpha assessed as inhibition constant by stopped-flow CO2 hydration assay
SH-SY5Y = assay: Antitumor activity against human SH-SY5Y cells assessed as induction of apoptosis by propidium iodide staining based flow cytometry analysis; assay type: functional, cell-based
Aspergillus = assay: Antifungal activity against Aspergillus assessed as fungal growth inhibition incubated by microtitre assay; assay type: functional
Candida albicans = assay: Antifungal activity against Candida albicans assessed as fungal growth inhibition incubated by microtitre assay; assay type: functional
Fusarium = assay: Antifungal activity against Fusarium assessed as fungal growth inhibition incubated by microtitre assay; assay type: functional
HeLa [28] = assay: Anticancer activity against human HeLa cells assessed as cell growth inhibition; assay type: functional, cell-based
HeLa [29] = assay: Anticancer activity against human HeLa assessed as cell growth inhibition; assay type: functional, cell-based
Aspergillus niger = assay: […] inhibition incubated for 24 hrs by agar disc diffusion assay; assay type: functional

Which results are given for `O=c1c2ccccc2[se]n1CCn1[se]c2ccccc2c1=O` [ETHASELEN]?
pIC50 (DU-145): 4.81; pIC50 (PC-3): 4.75

With `O=c1c2ccccc2[se]n1-c1ccccc1` [EBSELEN] as the compound, how does the pIC50 (U-266) read?
Its pIC50 is 4.40.

And the “inhibition (INH)” value (MIA PaCa-2)?
Its value is 58%.

Which MIC (Staphylococcus aureus [1]) does the source give for `CC(=O)C[Se]C(=O)c1ccc(Cl)cc1` here?
The MIC was 3.91 µM (≈ 1.08 µg/mL).

What about the MIC (Staphylococcus aureus [2]) of the same compound?
The MIC was 3.12 µM (≈ 0.86 µg/mL).

And the MIC (Enterococcus faecalis [3])?
Its MIC is 12.5 µM (≈ 3.44 µg/mL).

What does the source list for `CC(C)(O)c1[se][n+]2ccccc2c1Br.[Cl-]`?
IC50 (Pseudomonas aeruginosa [4]; PA 54, 20 h): 0.31 µg/mL; MIC (Pseudomonas aeruginosa [4]; PA 54, time 20 hrs): 0.31 µg/mL; MIC (Escherichia coli [5]): 0.31 µg/mL; IC50 (Pseudomonas aeruginosa [6]): 0.31 µg/mL; IC50 (Acinetobacter [7]): 0.31 µg/mL; IC50 (Acinetobacter [8]): 0.31 µg/mL; MIC (Escherichia coli [9]): 0.31 µg/mL; IC50 (Klebsiella pneumoniae [10]): 0.31 µg/mL; IC50 (Klebsiella pneumoniae [11]): 0.31 µg/mL; MIC (Staphylococcus aureus [12]): 0.31 µM; IC50 (Klebsiella pneumoniae [13]): 0.31 µg/mL; MIC (Escherichia coli [14]): 0.31 µg/mL; IC50 (Pseudomonas aeruginosa [15]): 0.31 µg/mL; IC50 (Acinetobacter [16]): 0.31 µg/mL; MIC (Escherichia coli [17]): 0.31 µg/mL; MIC (Pseudomonas aeruginosa [18]): 0.31 µg/mL

With `NS(=O)(=O)c1ccc(CCNC(=O)C[Se]c2ccccc2)cc1` as the compound, how does the pKi (Carbonic anhydrase 9) read?
The pKi was 8.33.

And the pKi (Carbonic anhydrase 12)?
The pKi was 8.42.

What about the pKi (Carbonic anhydrase 1) of the same compound?
The pKi was 7.19.

And the pKi (Carbonic anhydrase 2)?
The pKi was 8.31.

With `Cc1ccc([Se]CC(C)N)cc1` (configuration not stated) as the compound, how does the pKi (Carbonic anhydrase 7) read?
Its pKi is 4.98.

What does the source list for `O=C(Cn1ccnc1[N+](=O)[O-])NCc1ccccc1` [BENZNIDAZOLE]?
pIC50 (Trypanosoma cruzi [19]): 4.90; pIC50 (Trypanosoma cruzi [20]): 3.98

With `NS(=O)(=O)c1ccc([Se]CCc2ccccc2)cc1` as the compound, how does the pKi [21] read?
Its pKi is 8.37.

Which results are given for `c1csc([Se][Se]c2cccs2)c1`?
MIC (Enterococcus faecalis [22]): 96.8 µg/mL (≈ 298 µM); MIC [23]: 96.8 µg/mL (≈ 298 µM); MIC (Bacillus cereus [24]): 24.2 µg/mL (≈ 74.6 µM); MIC (Bacillus cereus [25]): 24.2 µg/mL (≈ 74.6 µM)

With `CC1(C)OC2=C(CC1[Se]c1ccc(F)cc1)C(=O)C(=O)c1ccccc12` (configuration not stated) as the compound, how does the “fold change (FC)” value (Trypanosoma cruzi [26]) read?
Its value is 2.6.

With `[Se]=C=NCCCCCCC1Cc2cccc3cccc(c23)C1` as the compound, how does the pIC50 (Leishmania major) read?
The pIC50 was 7.52.

What about the pIC50 (Leishmania amazonensis) of the same compound?
The pIC50 was 6.55.

With `CN(C)C(SCCCCCCN(C)c1ccc(-n2[se]c3ccccc3c2=O)cc1)=[N+](C)C` as the compound, how does the pIC50 (EBC-1) read?
The pIC50 was over 4.70.

With `NS(=O)(=O)c1ccc(CCNC(=[Se])NC(=O)c2ccc3c(c2)OCO3)cc1` as the compound, how does the pKi [27] read?
The pKi was 9.52.

Which results are given for `c1ccc([Se][Se]c2ccccc2)cc1`?
pIC50 (SH-SY5Y): 4.52; MIC (Aspergillus): 0.5 µg/mL (≈ 1.6 µM); MIC (Candida albicans): 4 µg/mL (≈ 12.8 µM); MIC (Fusarium): 2 µg/mL (≈ 6.41 µM)

With `COC(CNC(=[Se])Nc1ccc([N+](=O)[O-])cc1)c1ccc(O)c(O)c1` (configuration not stated) as the compound, how does the pIC50 (HeLa [28]) read?
Its pIC50 is 5.74.

And the pIC50 (HeLa [29])?
Its pIC50 is 5.42.

For `CCc1ccccc1-n1c(=[Se])n(C(c2ccccc2)c2ccccc2)c2ccccc21`, which “inhibition zone (IZ)” value (Aspergillus niger) is on record?
The value was 27.01 mm.
